Experimental data published in patent publication US20240308960A1 (Sumitomo Pharma Co., Ltd., priority 2021, published 2024).

biological target: T1, Human orexin receptor type 2 (Homo sapiens, UniProt O43614); experiment: Test Example 1: agonist activity for orexin receptor type 2 (aequorin luminescence, intracellular calcium mobilization); settings: compound 10 μm; CHO cells transiently expressing human orexin receptor type 2 and apoaequorin; relative percentage of luminescence for the luminescence (100%) of Orexin A (100 μM)
T1 sequence (O43614 1-444): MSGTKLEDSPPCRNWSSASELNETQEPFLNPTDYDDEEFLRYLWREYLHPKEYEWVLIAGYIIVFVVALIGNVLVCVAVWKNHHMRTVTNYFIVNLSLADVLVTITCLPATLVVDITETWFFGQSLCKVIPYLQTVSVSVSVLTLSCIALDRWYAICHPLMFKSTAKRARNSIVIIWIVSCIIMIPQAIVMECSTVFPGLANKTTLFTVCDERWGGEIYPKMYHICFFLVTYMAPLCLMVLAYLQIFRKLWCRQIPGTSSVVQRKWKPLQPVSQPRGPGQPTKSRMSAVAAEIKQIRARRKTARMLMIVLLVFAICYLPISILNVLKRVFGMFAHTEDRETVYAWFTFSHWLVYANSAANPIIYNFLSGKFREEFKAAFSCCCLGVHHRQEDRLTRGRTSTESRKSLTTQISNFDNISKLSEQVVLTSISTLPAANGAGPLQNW
Method: Human orexin receptor type 2 and apoaequorin were transiently expressed in CHO cells, and the agonist activity was evaluated based on intracellular calcium mobilization with ligand stimulation. The CHO cells transiently-expressed human orexin receptor type 2 and apoaequorin were seeded on a 384-well plate by 2,000 cells/well, and then incubated for 16-22 hours. After the plate was returned to room temperature, Coelenterazine hcp (final concentration: 1 μM) was added to the plate, and the plate was allowed to stand at room temperature for 2 hours. And then, Orexin A or each test compound was added to the plate, and the luminescence of the cells was measured with FDSS7000 (Hamamatsu Photonics K. K.), wherein Orexin A and each test compound were dissolved in DMSO (final concentration: 0.1%), and diluted with a buffer (Hanks, 20 mM HEPES, 0.1% BSA). The agonist activity of each test compound for orexin receptor type 2 was calculated as relative percentage of luminescence for the luminescence (100%) of Orexin A (100 μM).

Agonist Activity (%)	SMILES
128	Cc1ccc(C2CCN(C(=O)Nc3ccccc3N3CCN(C(C)C)CC3)CC2)c(F)c1 [Example 18, 4-(2-fluoro-4-methylphenyl)-N-{2-[4-(propan-2-yl)piperazin-1-yl]phenyl}piperidine-1-carboxamide]
133	CC(C)c1nc(C2(C)CCN(C(=O)Nc3ccccc3N3CCN(C(C)C)CC3)CC2)no1 [Example 19, 4-methyl-4-[5-(propan-2-yl)-1,2,4-oxadiazol-3-yl]-N-{2-[4-(propan-2-yl)piperazin-1-yl]phenyl}piperidine-1-carboxamide]
111	CC(C)c1nc(C2(C)CCN(C(=O)Nc3c(F)cccc3N3CCN(C(C)C)CC3)CC2)no1 [Example 20, N-{2-fluoro-6-[4-(propan-2-yl)piperazin-1-yl]phenyl}-4-methyl-4-[5-(propan-2-yl)-1,2,4-oxadiazol-3-yl]piperidine-1-carboxamide]
156	COc1cccc(N2CCN(C(C)C)CC2)c1NC(=O)N1CCC(C)(c2noc(C(C)C)n2)CC1 [Example 21, N-{2-methoxy-6-[4-(propan-2-yl)piperazin-1-yl]phenyl}-4-methyl-4-[5-(propan-2-yl)-1,2,4-oxadiazol-3-yl]piperidine-1-carboxamide]
97	Cc1nc(C2(C)CCN(C(=O)Nc3c(F)cccc3N3CCN(C(C)C)CC3)CC2)no1 [Example 22, N-{2-fluoro-6-[4-(propan-2-yl)piperazin-1-yl]phenyl}-4-methyl-4-(5-methyl-1,2,4-oxadiazol-3-yl)piperidine-1-carboxamide]
92	COc1cccc(N2CCN(C(C)C)CC2)c1NC(=O)N1CCC(C)(c2noc(C)n2)CC1 [Example 23, N-{2-methoxy-6-[4-(propan-2-yl)piperazin-1-yl]phenyl}-4-methyl-4-(5-methyl-1,2,4-oxadiazol-3-yl)piperidine-1-carboxamide]
127	CC(C)N1CCN(c2cccc(F)c2NC(=O)N2CCC(C)(c3noc(C(F)(F)F)n3)CC2)CC1 [Example 24, N-{2-fluoro-6-[4-(propan-2-yl)piperazin-1-yl]phenyl}-4-methyl-4-[5-(trifluoromethyl)-1,2,4-oxadiazol-3-yl]piperidine-1-carboxamide]
136	COc1cccc(N2CCN(C(C)C)CC2)c1NC(=O)N1CCC(C)(c2noc(C(F)(F)F)n2)CC1 [Example 25, N-{2-methoxy-6-[4-(propan-2-yl)piperazin-1-yl]phenyl}-4-methyl-4-[5-(trifluoromethyl)-1,2,4-oxadiazol-3-yl]piperidine-1-carboxamide]
129	CC(C)N1CCN(c2cccc(F)c2NC(=O)N2CCC(Oc3ccccc3)CC2)CC1 [Example 27, N-{2-fluoro-6-[4-(propan-2-yl)piperazin-1-yl]phenyl}-4-phenoxypiperidine-1-carboxamide]
77	Cc1cccc(C2CCN(C(=O)Nc3c(F)cccc3N3CCN(C(C)C)CC3)CC2)c1 [Example 29, N-{2-fluoro-6-[4-(propan-2-yl)piperazin-1-yl]phenyl}-4-(3-methylphenyl)piperidine-1-carboxamide]
164	Cc1ccc(C2CCN(C(=O)Nc3ccccc3C3CCN(C(C)C)CC3)CC2)cc1.Cl [Example 31, 4-(4-methylphenyl)-N-{2-[1-(propan-2-yl)piperidin-4-yl]phenyl}piperidine-1-carboxamide hydrochloride]
150	Cc1ccc(C2CCN(C(=O)Nc3c(C(=O)N(C)C)cccc3N3CCN(C(C)C)CC3)CC2)cc1 [Example 33, N-{2-(dimethylcarbamoyl)-6-[4-(propan-2-yl)piperazin-1-yl]phenyl}-4-(4-methylphenyl)piperidine-1-carboxamide]
161	Cc1ccc(C2CCN(C(=O)Nc3c(N4CCN(C(C)C)CC4)cccc3C(F)(F)F)CC2)cc1 [Example 34, 4-(4-methylphenyl)-N-{2-[4-(propan-2-yl)piperazin-1-yl]-6-(trifluoromethyl)phenyl}piperidine-1-carboxamide]
163	Cc1ccc(C2CCN(C(=O)Nc3c(Cl)cccc3N3CCN(C(C)C)CC3)CC2)cc1 [Example 35, N-{2-chloro-6-[4-(propan-2-yl)piperazin-1-yl]phenyl}-4-(4-methylphenyl)piperidine-1-carboxamide]
123	CC(C)N1CCN(c2cccc(F)c2NC(=O)N2CCC(c3ccccn3)CC2)CC1 [Example 36, N-{2-fluoro-6-[4-(propan-2-yl)piperazin-1-yl]phenyl}-4-(pyridin-2-yl)piperidine-1-carboxamide]
47	Cc1ccccc1C1CCN(C(=O)Nc2c(F)cccc2N2CCN(C(C)C)CC2)CC1 [Example 37, N-{2-fluoro-6-[4-(propan-2-yl)piperazin-1-yl]phenyl}-4-(2-methylphenyl)piperidine-1-carboxamide]
119	COC(=O)c1cccc(N2CCN(C(C)C)CC2)c1NC(=O)N1CCC(c2ccc(C)cc2)CC1 [Example 38, methyl 2-{[4-(4-methylphenyl)piperidine-1-carbonyl]amino}-3-[4-(propan-2-yl)piperazin-1-yl]benzoate]
106	Cc1ccc(C2CCN(C(=O)Nc3c(F)cccc3C3CCN(C(C)C)CC3)CC2)cc1 [Example 39, N-{2-fluoro-6-[1-(propan-2-yl)piperidin-4-yl]phenyl}-4-(4-methylphenyl)piperidine-1-carboxamide]
122	CC(C)c1ccc(C2CCN(C(=O)Nc3c(F)cccc3N3CCN(C(C)C)CC3)CC2)cc1 [Example 40, N-{2-fluoro-6-[4-(propan-2-yl)piperazin-1-yl]phenyl}-4-[4-(propan-2-yl)phenyl]piperidine-1-carboxamide]
135	CC(C)N1CCC(c2cccc(F)c2NC(=O)N2CCC(C)(c3noc(C4CC4)n3)CC2)CC1 [Example 43, 4-(5-cyclopropyl-1,2,4-oxadiazol-3-yl)-N-{2-fluoro-6-[1-(propan-2-yl)piperidin-4-yl]phenyl}-4-methylpiperidine-1-carboxamide]

SMILES	Agonist Activity (%)
CC(C)N1CCN(c2cccc(F)c2NC(=O)N2C3CCC2CC(c2nc(C4CC4)no2)C3)CC1 (stereo not drawn) [Example 32, 3-(3-cyclopropyl-1,2,4-oxadiazol-5-yl)-N-{2-fluoro-6-[4-(propan-2-yl)piperazin-1-yl]phenyl}-8-azabicyclo[3.2.1]octane-8-carboxamide]	30
Cc1ccc(C2CC3CCC(C2)N3C(=O)Nc2c(F)cccc2N2CCN(C(C)C)CC2)cc1 (stereo not drawn) [Example 41, N-{2-fluoro-6-[4-(propan-2-yl)piperazin-1-yl]phenyl}-3-(4-methylphenyl)-8-azabicyclo[3.2.1]octane-8-carboxamide]	47
Cc1ccc(C2CCN(C(=O)Nc3c(F)cccc3C3=CCN(C(C)C)CC3)CC2)cc1 [Example 42, N-{2-fluoro-6-[1-(propan-2-yl)-1,2,3,6-tetrahydropyridin-4-yl]phenyl}-4-(4-methylphenyl)piperidine-1-carboxamide]	128
CC(C)N1CC=C(c2cccc(F)c2NC(=O)N2CCC(C)(c3noc(C4CC4)n3)CC2)CC1 [Example 44, 4-(5-cyclopropyl-1,2,4-oxadiazol-3-yl)-N-{2-fluoro-6-[1-(propan-2-yl)-1,2,3,6-tetrahydropyridin-4-yl]phenyl}-4-methylpiperidine-1-carboxamide]	143
